# Results from patent US9302999B2, “Substituted triazoles as herbicides” (E. I. DU PONT DE NEMOURS AND COMPANY, priority 2012, dated 2016).
# Where two headings read alike, the source gives them in different places.
# Experiments:
# Assay type in all cases: in vivo
# [1] = tested on: pigweed (Amaranthus retroflexus); assay: Test C pre-/postemergence: pigweed
# From the text: (§1) Seeds of plant species selected from blackgrass (Alopecurus myosuroides), bromegrass, downy (downy bromegrass, Bromus tectorum), foxtail, green (green foxtail, Setaria viridis), ryegrass, Italian (Italian ryegrass, Lolium multiflorum), winter wheat (Triticum aestivum), wild oat (Avena fatua), galium (catchweed bedstraw, Galium aparine), bermudagrass (Cynodon dactylon), surinam grass (Brachiaria decumbens), cocklebur (common cocklebur, Xanthium strumarium), corn (Zea mays), large crabgrass (Digitaria sanguinalis), woolly cupgrass (Eriochloa villosa), foxtail, giant (giant foxtail, Setaria faberii), goosegrass (Eleusine indica), johnsongrass (Sorghum halepense), kochia (Kochia scoparia), lambsquarters (Chenopodium album), morningglory (Ipomoea coccinea), nightshade (eastern black nightshade, Solanum ptycanthum), nutsedge, yellow (yellow nutsedge, Cyperus esculentus), pigweed (Amaranthus retroflexus), ragweed (common ragweed, Ambrosia elation), soybean (Glycine max), common (oilseed) sunflower (Helianthus annuus), Russian thistle (Salsola kali) and velvetleaf (Abutilon theophrasti) were planted into a blend of loam soil and sand and treated preemergence with test chemicals formulated in a non-phytotoxic solvent mixture which included a surfactant.
# (§2) At the same time, plants selected from these crop and weed species and also barley (winter barley, Hordeum vulgare), canarygrass (Phalaris minor), chickweed (common chickweed, Stellaria media) windgrass (Apera spica-venti) and deadnettle (henbit deadnettle, Lamium amplexicaule) were planted in pots containing Redi-Earth® planting medium (Scotts Company, 14111 Scottslawn Road, Marysville, Ohio 43041) comprising spaghnum peat moss, vermiculite, wetting agent and starter nutrients and treated with postemergence applications of test chemicals formulated in the same manner. Plants ranged in height from 2 to 18 cm (1- to 4-leaf stage) for postemergence treatments.
# (§3) Treated plants and controls were maintained in a greenhouse for 13 to 15 days, after which time all species were compared to controls and visually evaluated. Plant response ratings, summarized in Table C, are based on a scale of 0 to 100 where 0 is no effect and 100 is complete control. A dash (-) response means no test result.
# [2] = tested on: ragweed (common ragweed, Ambrosia elation); assay: Test C pre-/postemergence: ragweed; conditions: Postemergence
# From the text: as §1, §2, §3
# [3] = tested on: galium (catchweed bedstraw, Galium aparine); assay: Test C pre-/postemergence: galium
# From the text: as §1, §2, §3
# [4] = tested on: crabgrass, large (large crabgrass, Digitaria sanguinalis); assay: Test A pre-/postemergence: crabgrass, large; conditions: for pest or weed control at 125 g/ha / pest or weed control at 500 g/ha: Digitaria sanguinalis, 240 h
# Procedure, shortened: (§4)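 Plants in loam–sand blend were treated with test chemicals in non-phytotoxic solvent with surfactant, either as preemergence directed soil spray or postemergence at 2–10 cm, one- to two-leaf stage. After about ten days in greenhouse, injury was rated visually against untreated controls on a 0–100 scale (100 = complete control).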
# [5] = tested on: large crabgrass (Digitaria sanguinalis); assay: Test C pre-/postemergence: large crabgrass
# From the text: as §1, §2, §3
# [6] = tested on: ryegrass, Italian (Italian ryegrass, Lolium multiflorum); assay: Test C pre-/postemergence: ryegrass, Italian
# From the text: as §1, §2, §3
# corn (Zea mays) = assay: Test A pre-/postemergence: corn
# Procedure, shortened: as §4
# [7] = tested on: blackgrass (Alopecurus myosuroides); assay: Test C pre-/postemergence: blackgrass
# From the text: as §1, §2, §3
# kochia (Kochia scoparia) = assay: Test C pre-/postemergence: kochia; conditions: Postemergence
# From the text: as §1, §2, §3
# soybean (Glycine max) = assay: Test C pre-/postemergence: soybean
# From the text: as §1, §2, §3
# [8] = tested on: foxtail, giant (giant foxtail, Setaria faberii); assay: Test C pre-/postemergence: foxtail, giant
# From the text: as §1, §2, §3
# [9] = tested on: velvetleaf (Abutilon theophrasti); assay: Test A pre-/postemergence: velvetleaf; conditions: for pest or weed control at 125 g/ha / pest or weed control at 500 g/ha: Abutilon theophrasti, 240 h
# Procedure, shortened: as §4
# [10] = Postemergence, 31 g ai/ha, scale 0 to 100 (0 no effect, 100 complete control)
# [11] = Postemergence, 62 g ai/ha, scale 0 to 100 (0 no effect, 100 complete control)
# [12] = Postemergence, 125 g ai/ha, scale 0 to 100, 0 no effect, 100 complete control
# [13] = Postemergence, 250 g ai/ha, scale 0 to 100
# [14] = 31 g ai/ha, scale 0 to 100 (0 no effect, 100 complete control)
# [15] = 62 g ai/ha, scale 0 to 100 (0 no effect, 100 complete control)
# [16] = 125 g ai/ha, scale 0 to 100, 0 no effect, 100 complete control
# [17] = Preemergence, 31 g ai/ha, scale of 0 to 100, 0 is no effect, 100 is complete control
# [18] = Preemergence, 62 g ai/ha, scale of 0 to 100, 0 is no effect, 100 is complete control
# [19] = Preemergence, 125 g ai/ha, scale 0 to 100, 0 no effect, 100 complete control
# [20] = Preemergence, 250 g ai/ha, scale 0 to 100, 0 no effect, 100 complete control
# [21] = Preemergence, 16 g ai/ha, scale 0 (no effect) to 100 (complete control)
# [22] = Preemergence, 31 g ai/ha, scale 0 (no effect) to 100 (complete control)
# [23] = Postemergence, 125 g ai/ha, 0 to 100 scale, 0 is no effect, 100 is complete control
# [24] = Postemergence, 500 g ai/ha, 0 to 100 scale, 0 is no effect, 100 is complete control
# [25] = Preemergence, 125 g ai/ha, 0 to 100 scale where 0 is no effect and 100 is complete control
# [26] = Preemergence, 500 g ai/ha, 0 to 100 scale (0 no effect, 100 complete control)
smiles,measurement,setting,value
"Cc1nn(-c2ccc(F)cc2)nc1Cc1ccnc(C(F)(F)F)c1 [Compound 16, 4-[[2-(4-fluorophenyl)-5-methyl-2H-1,2,3-triazol-4-yl]methyl]-2-(trifluoromethyl)pyridine]","Plant response rating, Pigweed",[1]; [10],75
same,"Plant response rating, Pigweed",[1]; [11],95
same,"Plant response rating, Pigweed",[1]; [12],100
same,"Plant response rating, Pigweed",[1]; [13],100
same,"Plant response rating, Ragweed",[2]; [14],5
same,"Plant response rating, Ragweed",[2]; [15],25
same,"Plant response rating, Ragweed",[2]; [16],75
same,"Plant response rating, Ragweed","[2]; 250 g ai/ha, scale 0 to 100",75
same,"Plant response rating, Galium",[3]; [10],60
same,"Plant response rating, Galium",[3]; [11],65
same,"Plant response rating, Galium",[3]; [12],80
same,"Plant response rating, Galium",[3]; [13],90
same,"Plant response rating, Galium",[3]; [17],100
same,"Plant response rating, Galium",[3]; [18],100
same,"Plant response rating, Galium",[3]; [19],100
same,"Plant response rating, Galium",[3]; [20],100
same,pest or weed control at 125 g/ha,"[4]; post-emergence, Postemergence, 125 g ai/ha, 0 to 100 scale, 0 is no effect, 100 is complete control, read-out: Crabgrass, Large plant response rating",90%
same,pest or weed control at 500 g/ha,"[4]; post-emergence, Postemergence, 500 g ai/ha, visual rating on 0 to 100 scale (0 no effect, 100 complete control), approximately ten days, read-out: Crabgrass, Large plant response rating",90%
same,pest or weed control at 125 g/ha,"[4]; pre-emergence, Preemergence, 125 g ai/ha, 0 to 100 scale (0 no effect, 100 complete control), read-out: Plant response rating, Crabgrass, Large",90%
same,pest or weed control at 500 g/ha,"[4]; pre-emergence, Preemergence, 500 g ai/ha, 0 to 100 scale, 0 is no effect, 100 is complete control, read-out: Plant response rating, Crabgrass, Large",100%
same,"Plant response rating, Crabgrass, Large",[5]; [10],5
same,"Plant response rating, Crabgrass, Large",[5]; [11],5
same,"Plant response rating, Crabgrass, Large",[5]; [12],20
same,"Plant response rating, Crabgrass, Large",[5]; [13],60
same,"Plant response rating, Ryegrass, Italian",[6]; [10],10
same,"Plant response rating, Ryegrass, Italian",[6]; [11],10
same,"Plant response rating, Ryegrass, Italian",[6]; [12],20
same,"Plant response rating, Ryegrass, Italian",[6]; [13],20
same,"Plant response rating, Ryegrass, Italian",[6]; [17],5
same,"Plant response rating, Ryegrass, Italian",[6]; [18],95
same,"Plant response rating, Ryegrass, Italian",[6]; [19],100
same,"Plant response rating, Ryegrass, Italian",[6]; [20],100
same,plant injury at 125 g/ha,"corn (Zea mays); Zea mays, post-emergence, 240 h, Postemergence, 125 g ai/ha, 0 to 100 scale, 0 is no effect, 100 is complete control, read-out: Corn plant response rating",30%
same,plant injury at 500 g/ha,"corn (Zea mays); Zea mays, post-emergence, 240 h, Postemergence, 500 g ai/ha, visual rating on 0 to 100 scale (0 no effect, 100 complete control), approximately ten days, read-out: Corn plant response rating",50%
same,"Corn plant response rating (crop injury, 0 = no effect, 100 = complete kill) at 125 g/ha","corn (Zea mays); Zea mays, pre-emergence, 240 h, Preemergence, 125 g ai/ha, 0 to 100 scale (0 no effect, 100 complete control)",10%
same,"Corn plant response rating (crop injury, 0 = no effect, 100 = complete kill) at 500 g/ha","corn (Zea mays); Zea mays, pre-emergence, 240 h, Preemergence, 500 g ai/ha, 0 to 100 scale, 0 is no effect, 100 is complete control",20%
same,"Plant response rating, Blackgrass",[7]; [10],10
same,"Plant response rating, Blackgrass",[7]; [11],25
same,"Plant response rating, Blackgrass",[7]; [12],40
same,"Plant response rating, Blackgrass",[7]; [13],80
same,"Plant response rating, Blackgrass",[7]; [17],90
same,"Plant response rating, Blackgrass","[7]; Preemergence, 62 g ai/ha, scale 0 to 100, 0 no effect, 100 complete control",100
same,"Plant response rating, Blackgrass",[7]; [19],100
same,"Plant response rating, Blackgrass",[7]; [20],100
same,"Plant response rating, Kochia",kochia (Kochia scoparia); [14],95
same,"Plant response rating, Kochia",kochia (Kochia scoparia); [15],98
same,"Plant response rating, Kochia",kochia (Kochia scoparia); [16],98
same,"Plant response rating, Kochia","kochia (Kochia scoparia); 250 g ai/ha, scale 0 to 100",98
same,"Plant response rating, Soybean",soybean (Glycine max); [10],20
same,"Plant response rating, Soybean",soybean (Glycine max); [11],25
same,"Plant response rating, Soybean",soybean (Glycine max); [12],35
same,"Plant response rating, Soybean",soybean (Glycine max); [13],35
same,"Plant response rating, Foxtail, Giant",[8]; [10],40
same,"Plant response rating, Foxtail, Giant",[8]; [11],40
same,"Plant response rating, Foxtail, Giant",[8]; [12],50
same,"Plant response rating, Foxtail, Giant",[8]; [13],50
same,pest or weed control at 125 g/ha,"[9]; post-emergence, Postemergence, 125 g ai/ha, 0 to 100 scale, 0 is no effect, 100 is complete control, read-out: Velvetleaf plant response rating",100%
same,pest or weed control at 500 g/ha,"[9]; post-emergence, Postemergence, 500 g ai/ha, visual rating on 0 to 100 scale (0 no effect, 100 complete control), approximately ten days, read-out: Velvetleaf plant response rating",100%
same,pest or weed control at 125 g/ha,"[9]; pre-emergence, Preemergence, 125 g ai/ha, 0 to 100 scale (0 no effect, 100 complete control), read-out: Plant response rating, Velvetleaf",30%
same,pest or weed control at 500 g/ha,"[9]; pre-emergence, Preemergence, 500 g ai/ha, 0 to 100 scale, 0 is no effect, 100 is complete control, read-out: Plant response rating, Velvetleaf",80%
CCOc1nn(-c2ccc(Br)cc2)nc1Cc1ccnc(C(F)(F)F)c1 [Compound 189],"Plant response rating, Pigweed",[1]; [21],85
same,"Plant response rating, Pigweed",[1]; [22],98
same,"Plant response rating, Pigweed",[1]; [18],100
same,"Plant response rating, Pigweed",[1]; [19],100
same,"Plant response rating, Galium",[3]; [21],80
same,"Plant response rating, Galium",[3]; [22],80
same,"Plant response rating, Galium",[3]; [18],80
same,"Plant response rating, Galium",[3]; [19],95
same,"Plant response rating, Crabgrass, Large",[4]; [23],80
same,"Crabgrass, Large plant response rating",[4]; [24],90
same,"Plant response rating, Crabgrass, Large",[4]; [25],100
same,"Plant response rating, Crabgrass, Large",[4]; [26],100
same,"Plant response rating, Crabgrass, Large",[5]; [21],98
same,"Plant response rating, Crabgrass, Large",[5]; [22],98
same,"Plant response rating, Crabgrass, Large",[5]; [18],100
same,"Plant response rating, Crabgrass, Large",[5]; [19],100
same,"Plant response rating, Ryegrass, Italian",[6]; [21],50
same,"Plant response rating, Ryegrass, Italian",[6]; [22],60
same,"Plant response rating, Ryegrass, Italian",[6]; [18],85
same,"Plant response rating, Ryegrass, Italian",[6]; [19],100
same,"Plant response rating, Corn",corn (Zea mays); [23],20
same,Corn plant response rating,corn (Zea mays); [24],40
same,"Plant response rating, Corn",corn (Zea mays); [25],10
same,"Plant response rating, Corn",corn (Zea mays); [26],10
same,"Plant response rating, Blackgrass",[7]; [21],75
same,"Plant response rating, Blackgrass",[7]; [22],90
same,"Plant response rating, Blackgrass",[7]; [18],100
same,"Plant response rating, Blackgrass",[7]; [19],100
same,"Plant response rating, Soybean",soybean (Glycine max); [21],5
same,"Plant response rating, Soybean",soybean (Glycine max); [22],5
same,"Plant response rating, Soybean",soybean (Glycine max); [18],15
same,"Plant response rating, Soybean",soybean (Glycine max); [19],25
same,"Plant response rating, Foxtail, Giant",[8]; [21],100
same,"Plant response rating, Foxtail, Giant",[8]; [22],100
same,"Plant response rating, Foxtail, Giant",[8]; [18],100
same,"Plant response rating, Foxtail, Giant",[8]; [19],100
same,"Plant response rating, Velvetleaf",[9]; [23],70
same,Velvetleaf plant response rating,[9]; [24],90
same,"Plant response rating, Velvetleaf",[9]; [25],20
same,"Plant response rating, Velvetleaf",[9]; [26],60
